# Experimental data taken from US6372774B1, “Derivatives of N-phenylpyrazoles” (Rhone-Poulenc Agriculture Ltd., priority 1985, dated 2002).
# Key:
# [1] = tested on: Megoura viciae (Vetch Aphid); assay: Test 1(b): spray of infested tic bean plants, Megoura viciae; format: in vivo; conditions: at 50 ppm, 2 days, score 0-3 per replicate, 4 replicates (maximum 12)
# Procedure: (§1) One or more dilutions of the compounds to be tested were made in 50% aqueous acetone.
# (b) Megoura viciae (Vetch Aphid)
# (§2) Potted tic bean plants previously infected with mixed stages of Megoura were sprayed to run-off using a laboratory turntable sprayer. Treated plants were held in a greenhouse for 2 days and were assessed for aphid mortality using a scoring system, judging the response in comparison with plants treated with 50% aqueous acetone alone, as controls. Each treatment was replicated 4 times.
# [2] = tested on: Spodoptera littoralis (Egyptian Cotton Worm); assay: Test 2: leaf disc spray test, Spodoptera littoralis larvae; format: in vivo; conditions: foliar, application of 500 ppm, 2nd instar larvae on French bean leaf discs, sprayed
# Excerpt: One or more of the dilutions of the compounds to be tested were made in 50% aqueous acetone.
# Test species: Spodoptera littoralis (Egyptian Cotton Worm)
# French bean leaf discs were set in agar in petri dishes and infected with 5 2nd instar larvae. Four replicate dishes were assigned to each treatment and were sprayed under a Potter Tower with the appropriate test dilution. After 2 days, live larvae were transferred to similar dishes containing untreated leaves set in agar. Two or three days later, the dishes were removed from the constant temperature (25° C.) room in which they had been held and the mean percentage mortalities of larvae were determined.
# [3] = tested on: Plutella xylostella (Diamond-back Moth); assay: whole plant or invertebrate; format: in vivo; conditions: foliar
# Method in brief: (§3)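 Compounds were diluted in 50% aqueous acetone and sprayed in a Potter Tower onto turnip leaf discs in agar, each infested with 10 larvae (2nd instar Plutella, 3rd instar Phaedon), with four replicates per treatment. Mean percentage larval mortality was scored 4–5 days later at 25 °C.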
# [4] = tested on: Phaedon cochleariae (Mustard Beetle); assay: Test 3 a): leaf disc spray test, Phaedon cochleariae larvae; format: in vivo; conditions: Phaedon cochleariae, foliar, read-out: Phaedon % m 10 ppm
# Method in brief: as §3
# [5] = tested on: Megoura viciae (Vetch Aphid); assay: Test 3 b): spray of infested tic bean plants, Megoura viciae; format: in vivo
# Procedure: as §1
# b) Megoura viciae (Vetch Aphid)
# as §2, with “controls.” for “controls. Each treatment was replicated 4 times.”
# [6] = tested on: larvae of Rhipicephalus appendiculatus; assay: Test 4: tick larvae on guinea-pigs given subcutaneous injections; format: in vivo; conditions: for percentage survival through moulting of engorged tick larvae: recovered ticks kept at 23° C. for 14 to 21 days; for Result: ticks recovered / number of engorged ticks / Result: ticks recovered / engorgement: 4 subcutaneous injections to guinea-pigs, about 100 hours after infestation
# Procedure: Some 20 larvae of Rhipicephalus appendiculatus were placed in plastic capsules attached to the shaved flank of guinea-pigs. After 3 hours and then at 23 hourly intervals, the guinea-pigs were given a total of 4 subcutaneous injections of the test compound. Approximately 100 hours after infestation, the guinea-pigs were killed and the engorged tick larvae recovered, counter and kept at 23° C. in a humidity cabinet for 14 to 21 days. After this period, the percentage survival through moulting was assessed.
# [7] = Dose 2.5 mg/kg at each repetition
# [8] = Dose 3 mg/kg at each repetition
# [9] = Dose 4 mg/kg at each repetition
# [10] = Dose 5 mg/kg at each repetition
smiles,measurement,setting,value
"N#Cc1nn(-c2c(Cl)cc(C(F)(F)F)cc2Cl)c(N)c1SC(Cl)(Cl)Cl [Compound 11, 5-Amino-3-cyano-1-(2,6-dichloro-4-trifluoromethylphenyl)-4-trichloromethylthiopyrazole]",score against all stages of Megoura viciae,[1],7/12
"CC(C)[S+]([O-])c1c(C#N)nn(-c2c(Cl)cc(C(F)(F)F)cc2Cl)c1N (stereo not shown) [Compound 58, 5-Amino-3-cyano-1-(2,6-dichloro-4-trifluoromethylphenyl)-4-isopropylsulphinylpyrazole]",score against all stages of Megoura viciae,[1],7/12
"CCCSc1c(C#N)nn(-c2c(Cl)cc(C(F)(F)F)cc2Cl)c1N [Compound 71, 5-Amino-3-cyano-1-(2,6-dichloro-4-trifluoromethylphenyl)-4-propylthiopyrazole]",score against all stages of Megoura viciae,[1],7/12
"CC(C)Sc1c(C#N)nn(-c2c(Cl)cc(C(F)(F)F)cc2Cl)c1N [Compound 72, 5-Amino-3-cyano-1-(2,6-dichloro-4-trifluoromethylphenyl)-4-isopropylthiopyrazole]",score against all stages of Megoura viciae,[1],7/12
"CC(C)CSc1c(C#N)nn(-c2c(Cl)cc(C(F)(F)F)cc2Cl)c1N [Compound 73, 5-Amino-3-cyano-1-(2,6-dichloro-4-trifluoromethylphenyl)-4-(2-methylpropylthio)pyrazole]",score against all stages of Megoura viciae,[1],7/12
"CCC(C)Sc1c(C#N)nn(-c2c(Cl)cc(C(F)(F)F)cc2Cl)c1N (stereo not shown) [Compound 74, 5-Amino-3-cyano-1-(2,6-dichloro-4-trifluoromethylphenyl)-4-(1-methylpropylthio)pyrazole]",score against all stages of Megoura viciae,[1],7/12
"C=CCSc1c(C#N)nn(-c2c(Cl)cc(C(F)(F)F)cc2Cl)c1N [Compound 75, 4-Allylthio-5-amino-3-cyano-1-(2,6-dichloro-4-trifluoromethylphenyl)pyrazole]",score against all stages of Megoura viciae,[1],7/12
"CC(=O)Nc1c([N+](=O)[O-])c(Br)nn1-c1c(Cl)cc(C(F)(F)F)cc1Cl [Compound 102, 5-Acetamido-3-bromo-1-(2,6-dichloro-4-trifluoromethylphenyl)-4-nitropyrazole]",mortality at 500 ppm,[2],≥ 70%
"CC(=O)Nc1c([N+](=O)[O-])c(Cl)nn1-c1c(Cl)cc(C(F)(F)F)cc1Cl [Compound 103, 5-Acetamido-3-chloro-1-(2,6-dichloro-4-trifluoromethylphenyl)-4-nitropyrazole]",mortality at 500 ppm,[2],≥ 70%
"CC(=O)Nc1c([N+](=O)[O-])c(C#N)nn1-c1c(Cl)cc(C(F)(F)F)cc1Cl [Compound 104, 5-Acetamido-3-cyano-1-(2,6-dichloro-4-trifluoromethylphenyl)-4-nitropyrazole]",mortality at 500 ppm,[2],≥ 70%
"N#Cc1c(C(F)(F)F)nn(-c2c(Cl)cc(C(F)(F)F)cc2Cl)c1N [Compound 113, 5-Amino-4-cyano-1-(2,6-dichloro-4-trifluoromethylphenyl)-3-trifluoromethylpyrazole]",mortality at 500 ppm,[3]; read-out: mortality of larvae of Plutella xylostella,100%
same,pest or weed control at 10 ppm,[4],100%
same,mortality at 50 ppm,"[5]; Megoura viciae, read-out: mortality of Megoura viciae",100%
same,"score from 4 replicates, Megoura viciae","[5]; Test 3 method (b), application of 50 ppm, score 0-3 per replicate, maximum 12",12
same,percentage survival through moulting of engorged tick larvae,[6]; Dose 1.0 mg/kg at each repetition,only 47.9 percent survived
same,percentage survival through moulting of engorged tick larvae,[6]; [7],only 30.0 percent survived
same,Result: ticks recovered / number of engorged ticks,[6]; [8],reduced
same,percentage survival through moulting of engorged tick larvae,[6]; [8],8.3%
same,Result: ticks recovered / engorgement,[6]; [9],No ticks recovered
same,Result: ticks recovered / engorgement,[6]; [10],No ticks recovered
"CC(=O)Nc1c(C#N)c(C#N)nn1-c1c(Cl)cc(C(F)(F)F)cc1Cl [Compound 120, 5-Acetamido-1-(2,6-dichloro-4-trifluoromethylphenyl)-3,4-dicyanopyrazole]",percentage survival through moulting of engorged tick larvae,[6]; [7],only 62.5 percent survived
same,Result: ticks recovered / number of engorged ticks,[6]; [8],Less than five engorged ticks
same,Result: ticks recovered / engorgement,[6]; [9],No ticks recovered
same,Result: ticks recovered / engorgement,[6]; [10],No ticks recovered
"CC(=O)Nc1c(C#N)c(C(F)(F)F)nn1-c1c(Cl)cc(C(F)(F)F)cc1Cl [Compound 133, 5-Acetamido-4-cyano-1-(2,6-dichloro-4-trifluoromethylphenyl)-3-trifluoromethylpyrazole]",mortality at 100 ppm,[3]; read-out: Plutella % mortality at 100 ppm,21%
same,pest or weed control at 10 ppm,[4],100%
same,Result: ticks recovered / engorgement,[6]; [7],No ticks recovered
same,Result: ticks recovered / engorgement,[6]; [10],No ticks recovered
same,Result: ticks recovered / engorgement,[6]; Dose 15 mg/kg at each repetition,No ticks recovered
"CC(C)(C)C(=O)Nc1c(C#N)c(C#N)nn1-c1c(Cl)cc(C(F)(F)F)cc1Cl [Compound 134, 1-(2,6-Dichloro-4-trifluoromethylphenyl)-3,4-dicyano-5-(2,2-dimethylpropionamido)-pyrazole]",Result: ticks recovered / engorgement,[6]; [10],Less than five engorged ticks
same,Result: ticks recovered / engorgement,[6]; Dose 10 mg/kg at each repetition,No ticks recovered
"CC(=O)c1cn(-c2c(Cl)cc(C(F)(F)F)cc2Cl)nc1C(F)(F)F [Compound 215, 4-Acetyl-1-(2,6-dichloro-4-trifluoromethylphenyl)-3-trifluoromethylpyrazole]",melting point,,134 °C
"CC[S+]([O-])c1c(C)nn(-c2c(Cl)cc(C(F)(F)F)cc2Cl)c1N (stereo not shown) [Compound 218, 5-Amino-1-(2,6-dichloro-4-trifluoromethylphenyl)-4-ethylsulphinyl-3-methylpyrazole]",melting point,,157 to 158 °C
"CCS(=O)(=O)c1c(C)nn(-c2c(Cl)cc(C(F)(F)F)cc2Cl)c1N [Compound 222, 5-Amino-1-(2,6-dichloro-4-trifluoromethylphenyl)-4-ethylsulphonyl-3-methylpyrazole]",melting point,,193 °C
"CCCS(=O)(=O)c1c(C)nn(-c2c(Cl)cc(C(F)(F)F)cc2Cl)c1N [Compound 223, 5-Amino-1-(2,6-dichloro-4-trifluoromethylphenyl)-3-methyl-4-propanesulphonylpyrazole]",melting point,,145.5 to 147 °C
"CCCSc1c(C)nn(-c2c(Cl)cc(C(F)(F)F)cc2Cl)c1N [Compound 227, 5-Amino-1-(2,6-dichloro-4-trifluoromethylphenyl)-4-n-propylthio-3-methylpyrazole]",melting point,,100 to 102 °C
"N#CSc1c(C(F)(F)F)nn(-c2c(Cl)cc(C(F)(F)F)cc2Cl)c1N [Compound 230, 5-Amino-1-(2,6-dichloro-4-trifluoromethylphenyl)-4-thiocyanato-3-trifluoromethylpyrazole]",melting point,,49 to 50 °C
"Cc1nn(-c2c(Cl)cc(C(F)(F)F)cc2Cl)c(N)c1SC#N [Compound 231, 5-Amino-1-(2,6-dichloro-4-trifluoromethylphenyl)-3-methyl-4-thiocyanatopyrazole]",melting point,,133.5 °C
"CS(=O)(=O)c1cc(Cl)c(-n2nc(C(F)(F)F)c(C#N)c2N)c(Cl)c1 [Compound 232, 5-Amino-4-cyano-1-(2,6-dichloro-4-methanesulphonylphenyl)-3-trifluoromethylpyrazole]",melting point,,270 to 272 °C
"Cc1nn(-c2c(Cl)cc(C(F)(F)F)cc2Cl)c(N)c1SC(Cl)(Cl)Cl [Compound 233, 5-Amino-1-(2,6-dichloro-4-trifluoromethylphenyl)-3-methyl-4-trichloromethylthiopyrazole]",melting point,,156 °C
"N#Cc1c(C(F)(F)F)nn(-c2c(Cl)cc(S(=O)(=O)C(F)(F)F)cc2Cl)c1[N+](=O)[O-] [Compound 234, 4-Cyano-1-(2,6-dichloro-4-trifluoromethanesulphonylphenyl)-5-nitro-3-trifluoromethylpyrazole]",melting point,,168 to 169 °C
"FC(F)c1cn(-c2c(Cl)cc(C(F)(F)F)cc2Cl)nc1C(F)(F)F [Compound 235, 1-(2,6-Dichloro-4-trifluoromethylphenyl)-4-difluoromethyl-3-trifluoromethylpyrazole]",melting point,,88 to 90 °C
"Cc1c(C(F)(F)F)nn(-c2c(Cl)cc(C(F)(F)F)cc2Cl)c1N [Compound 236, 5-Amino-1-(2,6-dichloro-4-trifluoromethylphenyl)-4-methyl-3-trifluoromethylpyrazole]",melting point,,97 to 100 °C
